Source: patent US10821117B2, “Estrogen therapy for brain gray matter atrophy and associated disability” (The Regents of the University of California, priority 2014, dated 2020)

Columns and labels:
[1] = system: relapsing remitting multiple sclerosis patients; experiment: Brain MRI enhancing lesions and brain volumes (pairwise Jacobian integration); format: in vivo, human
Procedure: Linear mixed effects model was carried out to compare the percent change in whole gray matter and cortical gray matter between treatment groups. For the exploratory endpoints of EDSS, PASAT, and brain volume measures, linear mixed effects model was used to compare treatment groups at 12 and 24 months. Linear mixed effects model was carried out to evaluate the association between PASAT change and percent brain volume change.
• For Number of Enhancing Lesions, the data in this column are E+GA vs. P+GA mean of lesions number ratio (95% CI) and p-value based on mixed effect negative binomial regression model. • For Lesion Activity on Brain MRI, the data in this column are E+GA vs. P+GA odds ratio (95% CI) and p-value based on mixed effect logistic regression model. MRI Methodologies
Dual-echo fast spin echo: TR10000, TE12/95, 50 slices, 1×1×3 mm. Fluid attenuated inversion recovery (FLAIR): TR10380, TE88, T188, T12500, 50 slices, 1×1×3 mm. Minor changes were allowed to accommodate different platforms and field strengths at each site. MRI data in Dicom format were fully anonymized prior to transfer and then uploaded to the central MRI reading center database. Prior to study onset, each site provided a dummy scan utilizing the standardized sequences for review by the central MRI reading center to verify scan quality and fidelity. Quality control was maintained at each site using standard procedures for clinical scanners (daily phantoms, stability testing). Quarterly phantoms were collected from 12 of the 15 sites, most using the standard American College of Radiology (ACR) phatom. One site upgraded from a Siemens 1.5T to a 3.0T in November 2013, resulting in the acquisition of one month 24 scan on the new scanner. One site upgraded from a Phillips Achieva 3.0T to a Pillips Intera 3.0T after the first subject completed month 24. All subsequent studies were performed on the Intera.
MRI brain, whole gray matter, whole white matter and cortical gray matter volumes were determined using a pairwise Jacobian integration (PJI) method. Pre-processing for structural T1-weighted images included 1) N3 non-uniformity correction, 2) histogram-based intensity normalization, 3) linear standard space registration using ICBM 2009c nonlinear symmetric template, 4) patch-based brain extraction, and 5) lesion-inpainting. Inputs to PJI were a pair of baseline and follow-up pre-processed structural T1-weighed images. The PJI consisted of 1) linear skull-constrained symmetric registration, 2) halfway transformation and resampling, 3) nonlinear symmetric registration using ANTS, and 4) voxelwise Jacobian determinant calculation on the warp field. Whole gray matter and whole white matter tissue masks were generated by SPM8 Segment function. Additional nonlocal means denoising was applied. For whole brain tissue masks, the whole gray matter and whole white matter masks were combined. For cortical gray matter mask, a standard cortical mask was nonlinearly transformed and merged with gray matter mask. The standard template was the ICBM (ICBM 2009c nonlinear symmetric version), and the nonlinear registration was performed by ANTS. Finally, the Jacobian determinants were averaged within the masks for percent volume change in cortical gray matter, whole gray matter, whole white matter, and whole brain.

[2] = system: relapsing remitting multiple sclerosis patients; experiment: Voxel-based morphometry (VBM) of gray matter loss; format: in vivo, human; conditions: at 12 months; FDR P≤0.05; FIG. 9
Procedure: Voxel-based morphometry (VBM) analyses were performed as described by Kurth et al. (Neuroimage Clin. 4:454 (2014)). All subjects included in the VBM cohort were required to have at least reached month 12 of the study, and all images had to pass quality control before and after image preprocessing to be included in the VBM cohort. Using this criteria, the VBM cohort consisted of Ill subjects (62 in the estriol+GA, and 49 in the placebo+GA group) from 13 sites for month 12 analyses, and 86 of these subjects (45 in the estriol+GA, and 41 in the placebo+GA group) for 24 month analyses.
Brain images were preprocessed utilizing SPM8 and the VBM8 toolbox. White matter lesions were in-painted to minimize their impact based on manual delineations that were used for the analysis of new T2 lesions. […]
For the statistical analysis, a general linear model was applied that used the smoothed gray matter segments as the dependent and group x time as the independent variable. […] Applying this model, the interaction between group and time was calculated using T-tests to investigate group differences in local gray matter changes between month 0 and month 12 (month 0 and month 24, respectively). […]

[3] = negative value indicates improvement
[4] = negative value indicates worsening

## glatiramer acetate [Placebo + GA]
[1]; Month 12
  Lesion activity on Brain MRI - proportion of patients with enhancing lesion, Month 12 % (95% CI): 21.0 (10.8-31.1) %
[1]; Month 24
  Lesion activity on Brain MRI - proportion of patients with enhancing lesion, Month 24 % (95% CI): 14.6 (5.2-23.9) %
[1]; month 12, FIG. 7C, mean percent change from baseline
  cortical gray matter volume change from baseline: −0.74%
[1]; month 12, FIG. 7D, mean percent change from baseline
  whole gray matter volume change from baseline: −0.68%
[1]; [3]
  Enhancing Lesion Volume, Change from baseline at Mon 12, Mean ± SD: −18.7 ± 184
  Enhancing Lesion Volume, Change from baseline at Mon 12, Median: 0
  Enhancing Lesion Volume, Change from baseline at Mon 24, Mean ± SD: −34.0 ± 120
  Enhancing Lesion Volume, Change from baseline at Mon 24, Median: 0
  Number of Enhancing Lesions, Change from baseline to Mon 12, Mean ± SD: −0.5 ± 1.8
  Number of Enhancing Lesions, Change from baseline to Mon 12, Median: 0
  Number of Enhancing Lesions, Change from baseline to Mon 24, Mean ± SD: −0.5 ± 2.4
  Number of Enhancing Lesions, Change from baseline to Mon 24, Median: 0
[1]; [4]
  Cortical gray matter volume % change from baseline at Month 12, Mean ± SD: −0.72 ± 0.80%
  Cortical gray matter volume % change from baseline at Month 12, Median: −0.67%
  Cortical gray matter volume % change from baseline at Month 24, Mean ± SD: −1.04 ± 0.87%
  Cortical gray matter volume % change from baseline at Month 24, Median: −0.93%
  White matter volume % change from baseline at Month 12, Mean ± SD: −0.20 ± 0.83%
  White matter volume % change from baseline at Month 12, Median: −0.11%
  White matter volume % change from baseline at Month 24, Mean ± SD: −0.54 ± 1.12%
  White matter volume % change from baseline at Month 24, Median: −0.56%
  Whole Brain volume % change from baseline at Month 12, Mean ± SD: −0.50 ± 0.64%
  Whole Brain volume % change from baseline at Month 12, Median: −0.43%
  Whole Brain volume % change from baseline at Month 24, Mean ± SD: −0.78 ± 0.73%
  Whole Brain volume % change from baseline at Month 24, Median: −0.91%
  Whole gray matter volume % change from baseline at Month 12, Mean ± SD: −0.69 ± 0.71%
  Whole gray matter volume % change from baseline at Month 12, Median: −0.68%
  Whole gray matter volume % change from baseline at Month 24, Mean ± SD: −0.95 ± 0.76%
  Whole gray matter volume % change from baseline at Month 24, Median: −0.93%
[2]
  voxel-wise gray matter loss as compared to baseline: significant localized gray matter loss
  voxel-wise gray matter loss, between group comparison: significantly more gray matter loss
